The structures appear in SMILES notation.

Holding throughout (format): cell-based
For experiment [1], the system named is B16F10, a mouse melanoma cell. The experiment is described as follows: Melanin production in B16F10 cells. The note with it: mouse melanoma cell line; versus control group; FIG. 10. The method, then: (§1) Cells were cultivated according to the same process as in Experimental Example 6, and centrifuged (100×g) for 10 minutes to harvest the cells. In order to measure the production of melanin, 200 μg of the cell extract was added to 1 N NaOH (total 1 ml), allowed to stand at room temperature for 30 minutes, and then, absorbance was measured at 400 nm.
(§2) In order to measure the production of melanin, the cells were cultivated and harvested according to the same process as that of Experimental Example 6, and the production of melanin was measured according to the same process as that of Experimental Example 8.

Experiment [2] concerns Sk-mel-31, a human melanoma cell. The experiment is described as follows: Melanin production in Sk-mel-31 cells. The note with it: human melanoma cell line; versus control group; FIG. 10. The method, then:
as §1, §2

For experiment [3], the system named is tyrosinase. The experiment is described as follows: Expression of tyrosinase in Sk-mel-31 cells by Western blotting. The conditions noted are these: human melanoma cell line; versus control group; FIG. 9. The method, then:
(§3) Cells were cultivated according to the same process as in Experimental Example 6, and centrifuged (100×g) for 10 minutes to harvest the cells. In order to measure the expression of tyrosinase by Western blotting, 100 μg of the cell extract was resolved on 10% SDS-PAGE, transferred to NC, and then, blocked with TBS containing 5% skim milk. Then, it was reacted with a primary antibody diluted to 1:2,500 (monoclonal anti-tyrosine hydroxylase clone Th-2) and a secondary antibody diluted to 1:5,000 (anti-mouse IgG), respectively, and washed with TBS containing 0.2% Tween-20, and then, photosensitized on an X-ray film using an ECL detection kit. Then, OD values were graphed using an image analysis program of LabWork™ (version 4.4.00.0).
Background: Immunoblotting shows a protein as a band on a membrane.

Experiment [4] deals with T1, tyrosinase (Homo sapiens, UniProt P14679).
T1 sequence (P14679 19-529): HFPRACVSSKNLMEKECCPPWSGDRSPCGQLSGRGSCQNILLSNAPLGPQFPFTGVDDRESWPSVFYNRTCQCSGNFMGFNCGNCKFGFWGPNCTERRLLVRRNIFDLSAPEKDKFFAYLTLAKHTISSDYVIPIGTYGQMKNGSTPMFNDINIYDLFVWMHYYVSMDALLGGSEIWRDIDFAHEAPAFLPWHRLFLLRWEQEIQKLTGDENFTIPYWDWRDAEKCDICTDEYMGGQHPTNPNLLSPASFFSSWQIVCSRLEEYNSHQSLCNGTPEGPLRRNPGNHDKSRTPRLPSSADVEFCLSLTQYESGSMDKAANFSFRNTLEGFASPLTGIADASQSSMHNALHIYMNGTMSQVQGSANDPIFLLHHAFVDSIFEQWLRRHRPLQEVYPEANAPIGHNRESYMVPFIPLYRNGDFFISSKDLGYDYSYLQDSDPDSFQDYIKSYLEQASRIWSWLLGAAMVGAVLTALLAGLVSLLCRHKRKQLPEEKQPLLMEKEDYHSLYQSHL
The experiment is described as follows: Activity of tyrosinase in Sk-mel-31 cells. The note with it: 10 μg to 1 pg, versus control group, FIG. 7. The method, then:
(§4) In order to evaluate the effect of promoting black hair formation, the activity of tyrosinase was measured in Sk-mel-31, a human melanoma cell, and B16F10, a mouse melanoma cell. The cells were cultivated in an incubator at 37° C. (5% CO2 and 60% relative humidity) while maintaining a density of 1×10^6 cells/ml for Sk-mel-31 and 2×10^5 cells/ml for B16F10 in RPMI-1640 medium (containing 1% penicillin-streptomycin and 10% fetal bovine serum). The cells were stabilized in the incubator for 24 hours, and the culture medium containing FBS was replaced by FBS-free RPMI-1640. The cells were treated with mixed rare earth elements of 10 μg, 1 μg, 100 ng, 10 ng, 1 ng, 100 pg, […] and 1 pg, respectively, and individual rare earth elements of 10 ng. In order to measure the activity of tyrosinase, the cells were cultivated for a given time, centrifuged (100×g) for 10 minutes, and harvested. […] The cells were placed in an ice bath for one hour, and centrifuged with 40,000×g at 4° C. for 20 minutes to obtain a cell extract. 130 μl of 5 mM L-DOPA (L-3,4-dihydroxyphenylalanine) and 120 μl of 25 mM MBTH (3-methyl-2-benzothiazolinone hydrazone) were added to 250 μl of an analysis buffer containing 100 mM potassium phosphate (pH 7.1), 4% N,N-dimethylformamide and 0.1% (v/v) Triton X-100, and reacted in a thermostat at 37° C. for 5 minutes, and then, 100 μg of the cell extract was added thereto, and further reacted for 2 hours. Then, 500 μl of 1 M perchloric acid was added thereto and the mixture was centrifuged with 9,000×g at room temperature for 20 minutes. Then, the supernatant was taken and absorbance was measured at 505 nm.

Experiment [5] concerns the target T2, tyrosinase (Mus musculus, UniProt P11344).
T2 sequence (P11344 19-533): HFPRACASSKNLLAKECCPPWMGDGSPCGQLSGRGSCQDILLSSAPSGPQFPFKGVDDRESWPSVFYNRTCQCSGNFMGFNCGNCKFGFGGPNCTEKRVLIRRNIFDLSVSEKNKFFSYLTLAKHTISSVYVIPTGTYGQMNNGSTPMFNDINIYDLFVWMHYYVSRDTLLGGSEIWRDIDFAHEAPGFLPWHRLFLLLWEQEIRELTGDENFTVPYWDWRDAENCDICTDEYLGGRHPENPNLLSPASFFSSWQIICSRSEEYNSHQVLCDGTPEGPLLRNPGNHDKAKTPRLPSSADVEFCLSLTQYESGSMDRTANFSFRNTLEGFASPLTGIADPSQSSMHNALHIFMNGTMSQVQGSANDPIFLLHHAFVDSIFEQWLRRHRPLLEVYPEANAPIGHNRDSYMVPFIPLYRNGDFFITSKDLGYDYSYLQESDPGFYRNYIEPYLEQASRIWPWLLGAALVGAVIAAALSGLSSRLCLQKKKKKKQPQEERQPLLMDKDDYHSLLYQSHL
Briefly: Activity of tyrosinase in B16F10 cells. The note with it: 10 μg to 1 pg, versus control group, FIG. 8. The method, then:
as §4

The subject of experiment [6] is tyrosinase. The experiment is described as follows: Expression of tyrosinase in B16F10 cells by Western blotting. The note with it: mouse melanoma cell line; versus control group; FIG. 9. The method, then: as §3

Regarding `[Ho]` [Ho, holmium], the melanin production result in experiment [1] and in experiment [2] was “substantially the same effect” in each case. Moreover, the expression of tyrosinase result with tyrosinase [3] and in the experiment on tyrosinase [6] was “substantially the same effect” in each case. The tyrosinase activity result on tyrosinase [4] and on tyrosinase [5] was “substantially the same effect as mixed rare earth elements” each time.

Take `[Pm]` [Pm, promethium]: the melanin production entry in experiment [1] and in experiment [2] was “substantially the same effect” in each case. Besides, the expression of tyrosinase entry in the experiment on tyrosinase [3] and in the experiment on tyrosinase [6] was “substantially the same effect” each time. In addition, the tyrosinase activity result on tyrosinase [4] and at tyrosinase [5] was “substantially the same effect as mixed rare earth elements” each time.

As to `[Er]` [Er, erbium], the melanin production entry in experiment [1] and in experiment [2] was “substantially the same effect” throughout. For the same compound, the expression of tyrosinase entry in the experiment with tyrosinase [3] and in the experiment on tyrosinase [6] was “substantially the same effect” in each case. The tyrosinase activity entry on tyrosinase [4] and on tyrosinase [5] was “substantially the same effect as mixed rare earth elements” throughout.

On to `[Tb]` [Tb, terbium], for which the melanin production result in experiment [1] and in experiment [2] was “substantially the same effect” each time. In addition, the expression of tyrosinase result in the experiment with tyrosinase [3] and in the experiment with tyrosinase [6] was “substantially the same effect” each time. In addition, the tyrosinase activity result at tyrosinase [4] and at tyrosinase [5] was “substantially the same effect as mixed rare earth elements” throughout.

With `[Sc]` [Sc, scandium], the melanin production result in experiment [1] and in experiment [2] was “substantially the same effect” throughout. For the same compound, the expression of tyrosinase entry in the experiment with tyrosinase [3] and in the experiment on tyrosinase [6] was “substantially the same effect” each time. In addition, the tyrosinase activity entry on tyrosinase [4] and at tyrosinase [5] was “substantially the same effect as mixed rare earth elements” throughout.

Regarding `[Pr]` [Pr, praseodymium], the melanin production result in experiment [1] and in experiment [2] was “substantially the same effect” throughout. Moreover, the expression of tyrosinase entry in the experiment with tyrosinase [3] and in the experiment with tyrosinase [6] was “substantially the same effect” in each case. The tyrosinase activity result on tyrosinase [4] and on tyrosinase [5] was “substantially the same effect as mixed rare earth elements” throughout.

For `[Dy]` [Dy, dysprosium], the melanin production result in experiment [1] and in experiment [2] was “substantially the same effect” in each case. The expression of tyrosinase result in the experiment on tyrosinase [3] and in the experiment with tyrosinase [6] was “substantially the same effect” in each case. Moreover, the tyrosinase activity entry at tyrosinase [4] and at tyrosinase [5] was “substantially the same effect as mixed rare earth elements” each time.

For `[Tm]` [Tm, thulium], the melanin production entry in experiment [1] and in experiment [2] was “substantially the same effect” throughout. For the same compound, the expression of tyrosinase entry in the experiment on tyrosinase [3] and in the experiment on tyrosinase [6] was “substantially the same effect” throughout. Moreover, the tyrosinase activity entry at tyrosinase [4] and at tyrosinase [5] was “substantially the same effect as mixed rare earth elements” each time.

In the case of `[Y]` [Y, yttrium], the melanin production entry in experiment [1] and in experiment [2] was “substantially the same effect” in each case. Further, the expression of tyrosinase result in the experiment with tyrosinase [3] and in the experiment with tyrosinase [6] was “substantially the same effect” throughout. In addition, the tyrosinase activity result on tyrosinase [4] and at tyrosinase [5] was “substantially the same effect as mixed rare earth elements” throughout.

Consider `[Yb]` [Yb, ytterbium], for which the melanin production result in experiment [1] and in experiment [2] was “substantially the same effect” in each case. The expression of tyrosinase result in the experiment with tyrosinase [3] and in the experiment with tyrosinase [6] was “substantially the same effect” each time. Also, the tyrosinase activity entry on tyrosinase [4] and on tyrosinase [5] was “substantially the same effect as mixed rare earth elements” throughout.

The values are drawn from patent US8715714B2, “Uses of rare earth elements for hair improvement” (Micellbio Co., Ltd., priority 2006, dated 2014).
